Holding throughout (format): cell-based, human
For assay [1], the system named is PHA-stimulated lymphocytes of patients suffering from a hematological malignancy. Briefly: FISH replication assay, lymphocytes of hematological cancer patients grown with 5-azacytidine (Example 6). As to conditions: for percentage of SD cells following exposure to AZA, mean value: patients' samples 1-15, 72 hours, mean ± standard deviation. Here is the method: (§1) Each subject donated five ml of peripheral blood. Cell cultures of PHA-stimulated lymphocytes were set up according to standard protocol (Rooney and Czepulkowsli, 1992). Briefly, 0.5 ml of peripheral blood was introduced into a 15 ml test tube containing 5ml F-10 medium supplemented with 20% fetal calf serum, 0.2% heparin, 1% penicillin/streptomycin antibiotic solution (Biological industries, Israel) and 3% phytohemagglutinin (PHA). In addition, all the 15 samples derived from the hematological patients (samples 1-15) and 15 of the 41 samples derived from non-cancerous subjects (samples 16-30) were also grown in the presence of 10^−7M 5-azacytidine (AZA; Sigman, USA) added to the other ingredients described above.
(§2) After 72 hours at 37° C., colchicine (Sigma, USA) was added to each sample (final concentration of 5×10^−7M for one hour) followed by hypotonic treatment (0.075 M KC1 at 37° C. for 15 minutes) and four washes, each with a fresh cold (−20° C.) 3:1 solution of methanol: acetic acid. The cell suspensions were stored at −20° C. until used for FISH.
(§3) Six diverse loci were tested using directly labeled commercial probes obtained from Vysis: (i) the SNRPN probe (32-190004); (ii) the TP53 probe (32-190006); (iii) the AML1 probe (LSI 21; 32-190002); (iv) the RB1 probe (LSI 13; 32-190001); (v) the α-satellite probe specific for centromere 17 (32-130017, hereafter marked as CEN17); and (vi) the satellite III probe specific for centromere 15 (32-1300015, hereafter marked as CEN15). The SNRPN probe identifies the Prader-Willi/Angelman syndrome region on 15q11-13 and is the most well characterized imprinted region in man (Ozoelik et al 1992). The TP53 probe identifies the p53 gene mapped to […] and is a tumor suppressor gene whose deletion and/or inactivation is implicated in over 50% of all human tumors (Prokocimer et al 1998). The AML1 probe recognizes a gene mapped to chromosome 21q22, which is one of the most frequently translocated genes in human blood malignancy (Look 1997). […] It is located on chromosome 13q14, and encodes the retinoblastoma protein. Both centromere specific probes (CEN17 and CEN15) identify non-coding loci implicated with chromosomal segregation and stability and are usually used for the enumeration of chromosome 17 and 15, respectively. Also the AML1 and RB1 probes, although not identifying centromeric regions, were both approved by the FDA to replace centromere specific probes for the enumeration of chromosomes 21 and 13, respectively.
(§4) A standard protocol was followed, as recommended by Ingen Laboratories (currently Insitus Biotechnologies), with few minor changes. Probes were diluted in Ingen's DenHyb solutions D001 to 400 folds (CEN17 and CEN15) and in D003 to 100 fold (AML1; RB1) or 50 fold (TP53; SNRPN) instead of the hybridization solution supplied with the probe. Five μl of the probe solution was placed on the targeted area of the sample slides and covered with a 12 mm round silanized coverslip (Ingen laboratories, USA) at 76° C. and denatured for six minutes at that temperature. The slide-filled aluminum slide tray was then transferred into an HybBox (Ingen Laboratories, USA), covered and allowed to hybridize overnight in the box.
All samples obtained from the cancerous patients (samples 1-15) were analyzed with each of the six probes used, each in the absence as well as in the presence of AZA. Out of the non-cancerous samples grown without AZA 41 (samples 16-56) were analyzed with the AML1 and TP53 probes, 30 (samples 16-45) with the CEN17 probe and 15 (samples 16-30) with each of the other three probes (SNRPN, RB1 and CEN15).
Slides were analyzed blindly on an Olympus BH2 fluorescent microscope, using a triple band-pass filter (Chroma technology). For the replication assay (Boogs and Chinault, 1997) at least 100 cells, containing two well-defined hybridization signals were scored from each sample, for each probe and for each treatment, following one-color FISH. […]

In assay [2] the test system is PHA-stimulated lymphocytes of non-cancerous individuals. The assay can be described thus: FISH replication assay, lymphocytes of non-cancerous individuals grown with 5-azacytidine (Example 6). To be noted: for percentage of SD cells, mean value in AZA-exposed non-cancerous samples: samples 16-30, 72 hours, mean ± standard deviation. Here is the method: as §1, §2, §3, §4
Each of the 15 samples derived from the noncancerous subjects (samples 16-30) grown in the presence of AZA was also analyzed with each of the six probes used.
Slides were analyzed blindly on an Olympus BH2 fluorescent microscope, using a triple band-pass filter (Chroma technology). For the replication assay (Boogs and Chinault, 1997) at least 100 cells, containing two well-defined hybridization signals were scored from each sample, for each probe and for each treatment, following one-color FISH. The structure of each signal, either singlet (S), representing a non-replicated sequence, or doublet (D), disclosing a replicated sequence, was noted FIG. 1. […]

Assay [3] relates to PHA-stimulated lymphocytes, chromosome 21, 13, 17 and 15. The assay can be described thus: FISH analysis of chromosome losses and gains with and without 5-azacytidine (Example 6). To be noted: cancerous samples 1-15, presence vs absence of AZA. On the procedure: as §1
For the analyses of chromosome losses and gains, at least 200 cells following one-color FISH with each of the chromosome enumerating probes (AML1, RB1, CEN17 and CEN15) were scored for each tested sample, employing the same preparation used for evaluating allelic replication timing. The frequency of cells containing a single signal was used to evaluate the extent of chromosome losses and the frequency of cells with three or more signals were used to assess the level of chromosome gains.
The mean SD value of five loci (TP53, AML1, RB1, CEN17 and CEN15) and the mean losses and gains value of four loci (AML1, RB1, CEN17 and CEN15) represent each sample. […]

The values that follow come from US6803195B1, “Facile detection of cancer and cancer risk based on level of coordination between alleles” (Ramot At Tel-Aviv University Ltd., priority 1999, dated 2004).

In the case of `Nc1ncn([C@@H]2O[C@H](CO)[C@@H](O)[C@H]2O)c(=O)n1` [AZA, 5-azacytidine], the “percentage of SD cells following exposure to AZA, mean value” in assay [1] (AML1 locus, 10^-7M AZA) came to 25.3±3.7%; in assay [1] (CEN15 locus, 10^-7M AZA) it was 21.9±2.3%; in assay [1] (CEN17 locus, 10^-7M AZA), 22.7±3.4%; in assay [1] (RB1 locus, 10^-7M AZA), 22.4±2.5%; in assay [1] (TP53 locus, 10^-7M AZA) it was 21.7±4.4%. In assay [1] (TP53, AML1, RB1, CEN17 and CEN15, patients' samples, 10^-7M AZA), the “percentage of SD cells following exposure to AZA, range” value was 15-28%. Besides, the cancer-induced allele-specific replication entry in assay [1] (all five loci tested (TP53, RB1, AML1, satellited sequences of chromosomes 15 and 17), blood cells of hematological patients) is listed as “reversed to the normal”. Besides, the entries for the “combined SD frequency (mean of TP53, AML1, RB1, CEN17 and CEN15) per sample, range” value in assay [1] (patients' samples exposed to AZA) and in assay [2] (non-cancerous samples exposed to AZA) were 19.8-26.2% and 16.7-24.6%, respectively. The “percentage of SD cells, mean value in AZA-exposed non-cancerous samples” value in assay [2] (AML1 locus, 10^-7M AZA) is reported as 21.5±4.5%; in assay [2] (CEN15 locus, 10^-7M AZA), 20.9±3.8%; in assay [2] (CEN17 locus, 10^-7M AZA) it was 20.9±5.0%; in assay [2] (RB1 locus, 10^-7M AZA), 22.3±3.9%; in assay [2] (TP53 locus, 10^-7M AZA) it was 20.4±4.4%. Moreover, the “percentage of SD cells in AZA-exposed non-cancerous samples, range” value in assay [2] (TP53, AML1, RB1, CEN17 and CEN15, 10^-7M AZA) was 12-29%. Further, the “losses and gains values (mean of AML1, RB1, CEN17 and CEN15)” value in assay [3] is recorded as “unchanged”.
